Results reported in patent US7390910B2, “Compounds for treating tumors” (priority 2003, dated 2008).
Marks after values point to notes of the source that are not given here. *1 amine or outer side, *2 acyl side, *3 side chain or, on linkers, in order; H or OH if unused. Where a SMILES comes first, the peptide text is derived from it. [ ]: non-standard residue; d: D form. The star is where a group is joined. NMePhe(β,β-Me2) = CN[C@H](C(=O)O)C(C)(C)c1ccccc1; X1 = C/C(=C\[C@H](C(C)C)N(C)[*:1])C(=O)[*:2]; Tle = CC(C)(C)[C@H](N)C(=O)O; NHBn = c1ccc(CN*)cc1

Columns and labels:
[1] = test system: Human Melanoma Carcinoma Lox; test: Growth of tumors in nude mice (LOX xenograft); assay type: in vivo, athymic nu/nu female mice
Excerpt: Growth of Tumors in Nude Mice. […] A p-value ≦0.05 indicates a statistically significant reduction in relative tumor growth of treated group compared to that of the vehicle control group.

[2] = test system: bovine microtubule-associated protein (MAP)-rich tubulin; assay type: biochemical
Procedure, shortened: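 MAP-rich bovine tubulin at 1.5 mg/ml final was dissolved in cold PEM buffer (80 mM Na-PIPES pH 6.9, 1 mM MgCl2, 1 mM EGTA) with 1 mM GTP, then centrifuged at 12,000×g for 10 min at 4° C. Aliquots of 100 μl were added quickly to a low-volume 96-well plate holding duplicate 10 μl compound samples. Absorbance at 340 nm was read each minute for 60 min at 24° C.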

[3] = test system: KB85; test: cells; assay type: cell-based; details: for IC50: 3 days, SRB; for inhibition at 3 µM: 3000 nM
Procedure: (§1) Cell Survival Assay: Standard Pharmacological Test Procedure. […] Compounds are incubated with cells for 3 days.

[4] = test system: KB cells; test: cells; assay type: cell-based; details: for IC50: 3 days, SRB; for inhibition at 3 µM: 3000 nM
Procedure: as §1

[5] = test system: KBV1; test: cells; assay type: cell-based; details: for inhibition at 3 µM: KB-V1, 3000 nM; for IC50: 3 days, SRB
Procedure: as §1

[6] = test system: Colo205; test: Cell survival assay (SRB), Colo205; assay type: cell-based; details: Colo205 cells, 3 days
Procedure: as §1

[7] = test system: LOX; test: Cell survival assay (SRB), LOX; assay type: cell-based, human; details: Homo sapiens; LOX cells
Procedure: as §1

| Molecule | Tubulin Polym. % inhibition at 0.3 uM [2] | IC50 ([3]; 72 h) [µM] | IC50 ([4]; Homo sapiens, KB, 72 h) [µM] | inhibition at 3 µM ([5]; Homo sapiens) [%] | IC50 ([6]; Homo sapiens, COLO 205, 72 h) [µM] | IC50 ([5]; Homo sapiens, KB-V1, 72 h) [µM] | further results |
| --- | --- | --- | --- | --- | --- | --- | --- |
| CN[C@H](C(=O)N[C@H](C(=O)N(C)[C@H](/C=C(\C)C(=O)N1CCC[C@@H]1C(=O)N1CCC[C@@H]1C(=O)NCc1ccccc1)C(C)C)C(C)(C)C)C(C)(C)c1ccccc1 [Example 28, 1-{(2E,4S)-2,5-dimethyl-4-[methyl(N-methyl-3-phenyl-L-valyl-3-methyl-L-valyl)amino]hex-2-enoyl}-D-prolyl-N-benzyl-D-prolinamide] (H-[NMePhe(β,β-Me2)][Tle][X1][dP][dP]-NHBn) | 56(3) % | 0.0219 | 0.00107 | 14 | 0.00025 |  | % T/C on day 7 ([1]; 10 mg/kg IV on days 1, 5, 9): 10%; % T/C on day 10 ([1]; 10 mg/kg IV on days 1, 5, 9, day 10): 4% |
| CSC(C(=O)N[C@H](C(=O)N(C)[C@H](/C=C(\C)C(=O)O)C(C)C)C(C)(C)C)C(C)(C)c1ccccc1 (stereo partly drawn) [Example 102, (E,4S)-4-[((2S)-3,3-dimethyl-2-{[3-methyl-2-methylsulfanyl-3-phenylbutanoyl]amino}butanoyl)(methyl)amino]-2,5-dimethyl-2-hexenoic acid] | 79% | 1.15 | 0.693 |  | 0.28 |  | KBV1 % inhibition @6000 [5]: 40%@6000 |
| CN[C@H](C(=O)N[C@H](C(=O)N(C)[C@H](/C=C(\C)C(=O)NO)C(C)C)C(C)(C)C)C(C)(C)c1ccccc1 [Example 25, (E,4S)-4-[((2S)-3,3-dimethyl-2-{[(2S)-3-methyl-2-(methylamino)-3-phenylbutanoyl]amino}butanoyl)(methyl)amino]-N-hydroxy-2,5-dimethyl-2-hexenamide] | 75% | 0.227 | 0.039 | 7 | 0.02 |  |  |
| (E,4S)-4-[((2S)-2-{[(2S)-2-azido-3-methyl-3-phenylbutanoyl]amino}-3,3-dimethylbutanoyl)(methyl)amino]-2,5-dimethyl-2-hexenoic acid and (E,4S)-4-[((2S)-2-{[(2R)-2-azido-3-methyl-3-phenylbutanoyl]amino}-3,3-dimethylbutanoyl)(methyl)amino]-2,5-dimethyl-2-hexenoic acid [Example 94] | 73% |  |  |  |  |  | IC50 [3]: 1.33 µM; IC50 [4]: 1.3 µM; KBV1 % inhibition @ 3000 nM ([5]; 3000 nM): 30%(2); IC50 [6]: 0.46 µM |
| CCC(C(=O)N[C@H](C(=O)N(C)[C@H](/C=C(\C)C(=O)O)C(C)C)C(C)(C)C)C(C)(C)c1ccccc1 (stereo partly drawn) [Example 100, (E,4S)-4-[((2S)-3,3-dimethyl-2-{[3-methyl-2-ethyl-3-phenylbutanoyl]amino}butanoyl)(methyl)amino]-2,5-dimethyl-2-hexenoic acid] | 54% | 1.15 | 0.957 |  | 0.19 | 5.26 |  |
| CN[C@H](C(=O)N[C@H](C(=O)N(C)[C@H](/C=C(\C)C(=O)N1CCN(C)CC1)C(C)C)C(C)(C)C)C(C)(C)c1ccccc1 [Example 26, N,β,β-trimethyl-L-phenylalanyl-N^1-[(1S,2E)-1-isopropyl-3-methyl-4-(4-methyl-1-piperazinyl)-4-oxo-2-butenyl]-N^1,3-dimethyl-L-valinamide] | 71(2) % | 0.06 | 0.033 |  |  | 2.33 | % T/C on day 7 ([1]; 15 mg/kg IV on days 1, 5, 9): 4%; IC50 [7]: 0.046 µM |
| CCOC(=O)/C(C)=C/[C@H](C(C)C)N(C)C(=O)[C@@H](NC(=O)[C@@H](C)C(C)(C)c1ccccc1)C(C)(C)C [Example 91, Ethyl (E,4S)-4-[((2S)-2-{[(2S)-2,3-dimethyl-3-phenylbutanoyl]amino}-3,3-dimethylbutanoyl)(methyl)amino]-2,5-dimethyl-2-hexenoate] |  | > 3 |  |  | > 1 | > 3 | Tubulin Polym. % inhibition at 2 uM ([2]; 2 uM): 84**** %; inhibition at 3 µM ([4]; Homo sapiens, 72 h): 21% |
| C=CCC(C(=O)N[C@H](C(=O)N(C)[C@H](/C=C(\C)C(=O)O)C(C)C)C(C)(C)C)C(C)(C)c1ccccc1 (stereo partly drawn) [Example 98, (E,4S)-4-[((2S)-3,3-dimethyl-2-{[3-methyl-2-allyl-3-phenylbutanoyl]amino}butanoyl)(methyl)amino]-2,5-dimethyl-2-hexenoic acid] | 63% | 1.21 | 1.15 |  | 0.27 |  | KBV1 % inhibition @6000 [5]: 42%@6000 |
| CN[C@H](C(=O)N[C@H](C(=O)N(C)[C@H](/C=C(\C)C(=O)N1CCC[C@H]1[C@H](OC)[C@@H](C)C(=O)OC)C(C)C)C(C)(C)C)C(C)(C)c1ccccc1 [Example 30, N,β,β-trimethyl-L-phenylalanyl-N^1-((1S,2E)-4-{(2S)-2-[(1R,2R)-1,3-dimethoxy-2-methyl-3-oxopropyl]pyrrolidin-1-yl}-1-isopropyl-3-methyl-4-oxobut-2-enyl)-N^1,3-dimethyl-L-valinamide] | 45% | 0.006 | 0.0033 |  |  | 0.096 | % T/C on day 7 ([1]; 5 mg/kg IV on days 1, 5, 9): 11%; % T/C on day 14 ([1]; 5 mg/kg IV on days 1, 5, 9, day 14): 3% |
| C/C(=C\[C@H](C(C)C)N(C)C(=O)[C@@H](NC(=O)[C@@H](O)C(C)(C)c1ccccc1)C(C)(C)C)C(=O)O [Example 107, (E,4S)-4-[{N-[(2S)-2-hydroxy-3-methyl-3-phenylbutanoyl]-3-methyl-L-valyl}(methyl)amino]-2,5-dimethyl-2-hexenoic acid] | 21% | > 3 | > 3 |  | > 1 | > 3 |  |
| C/C(=C\[C@H](C(C)C)N(C)C(=O)[C@@H](NC(=O)C(C(C)(C)c1ccccc1)S(C)(=O)=O)C(C)(C)C)C(=O)O (stereo partly drawn) [Example 103, (E,4S)-4-[((2S)-3,3-dimethyl-2-{[3-methyl-2-methylsulfonyl-3-phenylbutanoyl]amino}butanoyl)(methyl)amino]-2,5-dimethyl-2-hexenoic acid] | 80% | 1.66 | 1.75 | 5 | 0.76 |  | inhibition at 3 µM [3]: 30% |
| CCOC(=O)/C(C)=C/[C@H](C(C)C)N(C)C(=O)[C@@H](NC(=O)C(OC)C(C)(C)c1ccccc1)C(C)(C)C (stereo partly drawn) [Example 104, Ethyl (E,4S)-4-[{(2S)-2-[(2-methoxy-3-methyl-3-phenylbutanoyl)amino]-3,3-dimethylbutanoyl}(methyl)amino]-2,5-dimethyl-2-hexenoate] | 38% | 2.13 | 1.73 |  | > 1 | 2.4 | IC50 [3]: 3 µM; IC50 [4]: 3 µM; IC50 [5]: 3 µM |
| CO[C@@H](C(=O)N[C@H](C(=O)N(C)[C@H](/C=C(\C)C(=O)O)C(C)C)C(C)(C)C)C(C)(C)c1ccccc1 [Example 106, (E,4S)-4-[{N-[(2R)-2-methoxy-3-methyl-3-phenylbutanoyl]-3-methyl-L-valyl}(methyl)amino]-2,5-dimethyl-2-hexenoic acid] | 54% | 1.23 | 1.42 | 22 | 0.93 |  |  |
| CN[C@H](C(=O)N[C@H](C(=O)N(C)[C@H](/C=C(\C)C(=O)N1CCC[C@H]1[C@H](OC)[C@@H](C)C(=O)N[C@@H](Cc1ccccc1)c1nccs1)C(C)C)C(C)(C)C)C(C)(C)c1ccccc1 [Example 29] | 62% |  |  |  |  |  | % T/C on day 7 ([1]; 10 mg/kg IV on days 1, 5, 9): 14%; % T/C on day 9 ([1]; 10 mg/kg IV on days 1, 5, 9, day 9): 9%; IC50 [3]: 0.0041 µM; IC50 [4]: 0.00075 µM; IC50 [5]: 0.18 µM |
| CN[C@H](C(=O)N[C@H](C(=O)N(C)[C@H](/C=C/c1nnn[nH]1)C(C)C)C(C)(C)C)C(C)(C)c1ccccc1 [Example 86, (2S)-N-[(1S,2E)-1-isopropyl-3-(1H-tetraazol-5-yl)-2-propenyl]-N,3,3-trimethyl-2-{[(2S)-3-methyl-2-(methylamino)-3-phenylbutanoyl]amino}butanamide] | 31% | 1.82 | 1.15 | 5 | 0.071 |  |  |
| CO[C@H](C(=O)N[C@H](C(=O)N(C)[C@H](/C=C(\C)C(=O)O)C(C)C)C(C)(C)C)C(C)(C)c1ccccc1 [Example 105, (E,4S)-4-[{N-[(2S)-2-methoxy-3-methyl-3-phenylbutanoyl]-3-methyl-L-valyl}(methyl)amino]-2,5-dimethyl-2-hexenoic acid] | 64% |  | 2.69 | 0 | 1.74 |  | IC50 [7]: 1.74 µM; inhibition at 3 µM [3]: 21%; inhibition at 3 µM ([4]; Homo sapiens, 72 h): 43% |
